{
  "source": "patent US20190038597A1",
  "about": "“PREVENTION OF VASCULAR AND CARDIAC FIBROSIS VIA IRE1ALPHA INHIBITION” (McMaster University, priority 2017, published 2019)",
  "key": {"[1]": {"system": "SHR/L-NAME model of hypertension", "assay": "Collagen content / fibrosis of vessels in L-NAME-treated SHRs", "assay_type": "in vivo, rat", "conditions": "18 days", "procedure": "12-14 week old male SHRs were randomized to receive vehicle, L-NAME (50 mg/L) or L-NAME and 4μ8c (2.5 mg/kg/day i.p.) for 18 days. Aortas and carotid arteries were removed at sacrifice for mechanical and structural analysis. (A) Picro-Sirius Red staining of aorta and carotid artery sections (B) Determination of soluble collagen content in aorta and carotid arteries by Picro-Sirius Red-based assay. Stress-strain curves (C,E), elastic modulus-stress lines (D,F) and the slope of the elastic modulus-stress lines (G,H) were calculated. Data is presented as mean±SEM. *, p<0.05 vs. NT; #, p<0.05 vs. L-NAME. N≥4 per group; 2-5 segments of the thoracic aorta were analyzed per animal. In C to F, lines of best fit are bound by 95% confidence intervals (dotted lines). *, p<0.05.\n12-14 week old male SHRs were used to determine the effect of pharmacological IRE1α inhibition on L-NAME-induced vascular stiffening. They were maintained on a 12-hour light-dark cycle with rat chow and water ad libitium. Animals were implanted with radio-telemetry devices (Data Science International, St. Paul, Minn., USA) one week before the start of the study. […]\nThe wet weight of aortic tissues was determined. […]\nTissues were fixed in 4% paraformaldehyde and subsequently embedded in paraffin. […] Collagen area density was calculated by dividing the PSR-stained area by the total area of the vessel."}, "VSMCs": {"system": "VSMCs", "assay": "Picro-Sirius Red assay of collagen synthesis in VSMCs", "assay_type": "cell-based, rat", "procedure": "VSMCs were cultured in DMEM/F12 containing 1% FBS. Confluent cells were treated with L-ascorbic acid-2-phosphate (100 μg/ml) and either TGF-β1 (5 ng/ml) or Ang II (1 μM). (A) Agarose gel for assessment of TGF-β1-induced XBP1 splicing in VSMCs after 24 h. (B) Picro-Sirius Red assay for measurement of collagen deposition induced by combined TGF-β1 and AA2P treatment after 72 h, and inhibition by 4μ8c and STF-083010. (C) Western blot for assessment of collagen chaperone expression after treatment of TGF-β1 and 4μ8c for 48 h. *, p<0.05. (D) Measurement of Ang II-induced collagen production and inhibition by 4μ8c and STF-083010 after 72 h.\nVSMCs were isolated from the aortas of 5-week old WKY rats using the explant method^29. The thoracic aorta was removed from the animal and placed in ice-cold 5× Antibiotics-Antimycotics solution (ThermoFisher). The adventitia was gently removed and the aorta was cut longitudinally. The endothelial layer was removed by gentle scraping with forceps. The aorta was cut into 3 mm^2 squares and placed on a 6 well plate in DMEM/F12 medium containing 10% fetal bovine serum (FBS). Explants were incubated undisturbed in a 5% CO2 incubator at 37° C. for 1 week and then passaged. Sprague-Dawley renal fibroblasts were purchased (Cell Biologics) and cultured in low glucose DMEM/F12 medium containing 10% FBS, streptomycin (100 μgimp, and penicillin (100 U/ml, Invitrogen, Burlington, ON). Cells between passages 5 and 10 were used for experiments. Cells were cultured in medium containing 1% FBS overnight before treatment.\nCollagen synthesis was measured using a Picro-Sirius Red-based assay as previously described^30. Briefly, cells cultured on a 96 well plate were fixed in methanol for 10 minutes at −20° C. Cells were washed once with PBS and incubated with Picrosirius Red stain (0.1% Direct Red 80 in saturated picric acid) for 1 h at room temperature. After the staining solution was removed, the cells were washed three times with 0.1% acetic acid and then imaged. The dye was then eluted with 0.1 N NaOH for 10 minutes on a rocking platform. Absorbance at 540 nm was measured using a Spectramax Plus Microplate Reader (Molecular Devices).\nCells were co-treated with either 4μ8c or S′TF-083010 to inhibit IRE1α endonuclease activity. TGF-β1 induced XBP1 splicing after 24 h, which was blocked by co-treatment with 4μ8c (FIG. 2A). Collagen production was measured using a Picro-Sirius Red-based colorimetric assay. TGF-β1 combined with AA2P induced collagen synthesis in the VSMCs, which was inhibited by co-treatment with 4μ8c or STF-083010 (FIG. 2B)."}},
  "data": [
    {"smiles": "Cc1cc(=O)oc2c(C=O)c(O)ccc12", "note": "[4μ8c, 7-Hydroxy-4-methyl-2-oxo-2H-chromene-8-carbaldehyde]", "values": [
      {"measurement": "Collagen content in homogenized aortic tissue", "setting": "[1]; L-NAME+4μ8c group, PSR-based colorimetric assay", "value": "47.10±2.88", "unit": "μg/mg tissue"},
      {"measurement": "fibrosis and vascular stiffness in the hypertensive animals", "setting": "[1]; SHR/L-NAME, 4μ8c 2.5 mg/kg/day i.p.", "value": "reduced"},
      {"measurement": "collagen synthesis induced by TGF-β1 combined with AA2P", "setting": "VSMCs; 72 h, co-treatment, FIG. 2B", "value": "inhibited"},
      {"measurement": "collagen synthesis induced by Ang II", "setting": "VSMCs; Ang II (1 μM) 72 h, FIG. 2D", "value": "blocked"}
    ]}
  ]
}
